Tested on: LG0567-F671-PDC multi-cell spheroid viability
Assay: Anticancer human tumor LG0567-F671-PDC patient-derived lung adenocarcinoma cell line growth inhibition [IpAb]
Conditions: for IC50: curve of first compound; for viability, T/C: stronger effect = lower value
Procedure, shortened: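 Spheroids of 60% malignant cells, 25% HUVEC and 15% MSC were exposed to targeted agents combined with ipatasertib or abemaciclib. Doses started at or near clinical Cmax (10 microM when unknown) and fell in half-log steps.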
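Also: viability read after 7 days of drug exposure.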
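For viability, T/C in this document: 100% = DMSO vehicle control luminescence.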

## Cn1ncc(Cl)c1-c1cc(C(=O)NC(CN)Cc2cccc(F)c2)sc1Cl (stereo not given) + CCN1CCN(Cc2ccc(Nc3ncc(F)c(-c4cc(F)c5nc(C)n(C(C)C)c5c4)n3)nc2)CC1
Second compound 0.01 µM
  IC50: 1850 nM
Second compound 0.0316 µM
  IC50: 1190 nM
Second compound 0.1 µM
  IC50: 470 nM
Second compound 0.316 µM
  IC50: < 31.6 nM
Second compound 1 µM
  IC50: 226 nM
Second compound 0.01 µM, first compound 0.0316 µM
  viability, T/C: 88.8%
Second compound 0.01 µM, first compound 0.1 µM
  viability, T/C: 68%
Second compound 0.01 µM, first compound 0.316 µM
  viability, T/C: 50.2%
Second compound 0.01 µM, first compound 1 µM
  viability, T/C: 61.4%
Second compound 0.01 µM, first compound 3.16 µM
  viability, T/C: 49.9%
Second compound 0.01 µM, first compound 10 µM
  viability, T/C: 0.15%
Second compound 0.0316 µM, first compound 0.0316 µM
  viability, T/C: 57.7%
Second compound 0.0316 µM, first compound 0.1 µM
  viability, T/C: 53.9%
Second compound 0.0316 µM, first compound 0.316 µM
  viability, T/C: 49.9%
Second compound 0.0316 µM, first compound 1 µM
  viability, T/C: 54.2%
Second compound 0.0316 µM, first compound 3.16 µM
  viability, T/C: 28.6%
Second compound 0.0316 µM, first compound 10 µM
  viability, T/C: 0.13%
Second compound 0.1 µM, first compound 0.0316 µM
  viability, T/C: 74.8%
Second compound 0.1 µM, first compound 0.1 µM
  viability, T/C: 51.4%
Second compound 0.1 µM, first compound 0.316 µM
  viability, T/C: 52.7%
Second compound 0.1 µM, first compound 1 µM
  viability, T/C: 45.8%
Second compound 0.1 µM, first compound 3.16 µM
  viability, T/C: 27.6%
Second compound 0.1 µM, first compound 10 µM
  viability, T/C: 0.13%
Second compound 0.316 µM, first compound 0.0316 µM
  viability, T/C: 42.4%
Second compound 0.316 µM, first compound 0.1 µM
  viability, T/C: 51.4%
Second compound 0.316 µM, first compound 0.316 µM
  viability, T/C: 57.9%
Second compound 0.316 µM, first compound 1 µM
  viability, T/C: 33%
Second compound 0.316 µM, first compound 3.16 µM
  viability, T/C: 30.9%
Second compound 0.316 µM, first compound 10 µM
  viability, T/C: 0.14%
Second compound 1 µM, first compound 0.0316 µM
  viability, T/C: 59%
Second compound 1 µM, first compound 0.1 µM
  viability, T/C: 51.8%
Second compound 1 µM, first compound 0.316 µM
  viability, T/C: 47.2%
Second compound 1 µM, first compound 1 µM
  viability, T/C: 37.4%
Second compound 1 µM, first compound 3.16 µM
  viability, T/C: 30%
Second compound 1 µM, first compound 10 µM
  viability, T/C: 0.19%

Source: PubChem BioAssay AID2060332 (Molecular Pharmacology Branch, DTP, NCI, 2025)
